Reference: patent US20240090505A1, “MULTI-SOLVENT PESTICIDAL COMPOSITIONS INCLUDING SULFOXIMINE” (CLARKE MOSQUITO CONTROL PRODUCTS, INC., priority 2020, published 2024)

Tested on: Culex sp. mosquitos
Test: Laboratory test of samples with and without surfactant (Pluronic L92), knockdown and mortality
Type: in vivo
Conditions: propylene carbonate:tributyl O-acetylcitrate 1:1
Procedure: Various amounts of different surfactants were evaluated to determine possible impacts on efficacy. In one set of trials, different amounts of sulfoxaflor were tested with and without a surfactant (Pluronic L92 from BASF).

Structure (SMILES): CC(c1ccc(C(F)(F)F)nc1)S(C)(=O)=NC#N (stereo not drawn) [Sulfoxaflor, sulfoxaflor]
- 1-hour knockdown (0.5 wt% sulfoxaflor, 20 wt% surfactant (Pluronic L92)): 2%
- 1-hour knockdown (0.5 wt% sulfoxaflor, no surfactant): 0%
- 1-hour knockdown (1 wt% sulfoxaflor, no surfactant): 18%
